Assay: Dissolution percentage as a function of time, UV spectrophotometry
Format: physicochemical
Details: API as received
Description: The dissolution percentage as a function of time was measured by respectively dissolving the as received CBZ and the coated MCC carrier particles in methanol (although other dissolution media could be used). UV spectrophotometry was used to measure the concentration of the CBZ dissolved in the methanol.

SMILES	dissolution percentage (after approximately 50 minutes, methanol)	dissolution percentage (within 10 minutes, methanol)	dissolution percentage (after approximately 60 minutes)
NC(=O)N1c2ccccc2C=Cc2ccccc21 [Carbamazepine, carbamazepine]	approximately 80%	less than 40%	
Cc1nc2n(c(=O)c1CCN1CCC(c3noc4cc(F)ccc34)CC1)CCCC2 [Risperidone, risperidone]			less than 40%
